Laboratory results: PubChem BioAssay (NCI)
Where “and” joins values, the source holds several entries; their conditions need not be identical. Equal entries are not always repeated.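 Exposure lasted 48 hours, with cells grown in 96-well plates and compounds tested at five concentrations. GI50: concentration for 50% inhibition of growth. TGI denotes the concentration required for complete inhibition of growth.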

Tested on: MDA-MB-468 breast
Experiment: DTP human tumour cell line panel, 48 h

| Structure (SMILES) | GI50 | TGI [µM] |
| --- | --- | --- |
| COC(=O)Nc1nc2ccc(C(=O)c3ccc(N(C)C4COC4)cc3)cc2[nH]1 | 0.224 µM | > 100 |
| CN1CCN(c2cc(C(=O)Nc3cc4cc(-c5cnn(C)c5)ccc4cn3)ccn2)CC1 | 0.0348 µM | 0.286 |
| CCN(CC)c1ccc2c(c1)Oc1nc(N)c(C#N)c(N)c1C2Sc1ccc(OC)cc1 (stereo not drawn) | 1.85 µM | 3.51 |
| Fc1ccc(-c2ncn(C3CCNCC3)c2-c2ccnc(Oc3ccc(F)c(F)c3)n2)cc1 | 2.34 µM | 5.86 |
| O=c1c(O)cccc2cc(O)c(O)c(O)c12 | 47.6 µM | > 100 |
| Cc1cccc(/C=C/C(=O)Nc2ncc(Cc3cccc(C)c3)s2)c1 | 3.77 µM | > 100 |
| CN1C(=O)[C@@H](NC(=O)[C@H](CCC(F)(F)F)[C@H](CCC(F)(F)F)C(N)=O)N=C(c2ccccc2)c2ccccc21 | 21.2 µM | > 100 |
| COc1cc(Nc2ncc(F)c(Nc3ccc4c(n3)NC(=O)C(C)(C)O4)n2)cc(OC)c1OC | 8.5 µM and 4.91 µM | > 100 |
| CN1CCN(c2ccc(Nc3nc(N)c(C(=O)c4ccc5c(c4)OCCO5)s3)cc2)CC1 | 5.56 µM | > 17.6 |
